Assay results from US20250115669A1, “FGFR1/KLB Targeting Agonistic Antigen-Binding Proteins and Conjugates Thereof with GLP-1R Agonistic Peptides” (SANOFI, priority 2020, published 2025).
Peptide text beside a SMILES is read from it.

Experiments:
Type in all cases: cell-based
[1] = biological target: T1, human GLP-1 receptor (Homo sapiens, UniProt P43220); assay: HTRF cAMP assay in HEK-293 cells expressing human GLP-1 receptor
T1 construct: expressed in transfected cells; host or cells: PSC-HEK-293
Procedure: (§1) Each vial contained 1.8 ml cells. The vials were slowly frozen to −80° C. in isopropanol, and then transferred in liquid nitrogen for storage.
(§2) Cells were resuspended in assay buffer (cell buffer plus 2 mM IBMX) and adjusted to a cell density of 1 million cells/ml.
(§3) For measurement of cAMP generation, 5 μl cells (final 5000 cells/well) and 5 μl of test compound were added to a 384-well plate, followed by incubation for 30 min at room temperature.
(§4) The cAMP generated was determined using a kit from Cisbio Corp. based on HTRF (Homogenous Time Resolved Fluorescence). The cAMP assay was performed according to manufacturer's instructions (Cisbio).

[2] = biological target: T2, human glucagon (GCG) receptor (Homo sapiens, UniProt P47871); assay: HTRF cAMP assay in HEK-293 cells expressing human glucagon receptor; details: HEK-293 cells; read-out: HTRF cAMP EC50 Human GCGR
T2 construct: expressed in transfected cells; host or cells: PSC-HEK-293
Procedure: as §1, §2, §3, §4

[3] = biological target: T3, human GIP receptor (Homo sapiens, UniProt P48546); assay: HTRF cAMP assay in HEK-293 cells expressing human GIP receptor; details: HEK-293 cells; read-out: HTRF cAMP EC50 Human GIPR
T3 construct: expressed in transfected cells; host or cells: PSC-HEK-293
T3 sequence (P48546 22-466): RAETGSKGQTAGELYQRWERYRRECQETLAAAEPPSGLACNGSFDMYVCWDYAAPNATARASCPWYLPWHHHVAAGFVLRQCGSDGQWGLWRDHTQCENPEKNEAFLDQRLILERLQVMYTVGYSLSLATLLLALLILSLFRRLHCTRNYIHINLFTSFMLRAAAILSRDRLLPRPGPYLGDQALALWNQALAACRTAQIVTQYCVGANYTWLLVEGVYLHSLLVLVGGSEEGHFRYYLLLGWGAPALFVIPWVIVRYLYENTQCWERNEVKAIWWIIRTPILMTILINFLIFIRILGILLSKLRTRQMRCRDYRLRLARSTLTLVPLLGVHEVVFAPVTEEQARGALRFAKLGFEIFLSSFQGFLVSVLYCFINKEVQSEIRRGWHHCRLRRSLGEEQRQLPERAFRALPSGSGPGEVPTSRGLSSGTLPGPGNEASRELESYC
Procedure: as §1, §2, §3, §4

T1 sequence (P43220 24-463): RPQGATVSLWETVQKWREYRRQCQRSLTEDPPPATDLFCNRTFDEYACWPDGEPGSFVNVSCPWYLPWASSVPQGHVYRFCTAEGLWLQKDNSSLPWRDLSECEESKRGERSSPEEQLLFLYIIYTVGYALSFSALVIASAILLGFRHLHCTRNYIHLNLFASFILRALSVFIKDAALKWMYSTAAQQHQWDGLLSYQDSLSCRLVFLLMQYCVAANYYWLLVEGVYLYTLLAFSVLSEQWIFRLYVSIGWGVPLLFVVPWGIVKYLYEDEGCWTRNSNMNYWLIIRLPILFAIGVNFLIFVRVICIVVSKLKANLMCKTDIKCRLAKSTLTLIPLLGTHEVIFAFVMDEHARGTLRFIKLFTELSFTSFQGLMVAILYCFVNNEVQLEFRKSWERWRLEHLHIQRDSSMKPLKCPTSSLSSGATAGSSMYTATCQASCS
T2 sequence (P47871 26-477): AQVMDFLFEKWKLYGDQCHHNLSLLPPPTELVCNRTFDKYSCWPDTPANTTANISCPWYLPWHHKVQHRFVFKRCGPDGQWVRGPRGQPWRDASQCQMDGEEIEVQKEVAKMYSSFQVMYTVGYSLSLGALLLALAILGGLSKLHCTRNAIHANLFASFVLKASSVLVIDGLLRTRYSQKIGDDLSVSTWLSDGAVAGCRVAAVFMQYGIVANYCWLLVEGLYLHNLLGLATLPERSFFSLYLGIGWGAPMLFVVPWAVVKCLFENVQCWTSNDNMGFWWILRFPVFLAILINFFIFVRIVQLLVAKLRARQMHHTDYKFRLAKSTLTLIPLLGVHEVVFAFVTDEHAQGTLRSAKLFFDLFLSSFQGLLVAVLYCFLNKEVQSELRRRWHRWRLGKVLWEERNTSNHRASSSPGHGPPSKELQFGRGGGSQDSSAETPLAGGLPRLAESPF

Row | EC50 [2] | EC50 [3] | Compound | EC50 [1]
1 | – | – | CC[C@H](C)[C@H](NC(=O)[C@H](CO)NC(=O)[C@H](CC(C)C)NC(=O)[C@H](CC(=O)O)NC(=O)[C@H](CO)NC(=O)[C@@H](NC(=O)[C@H](Cc1ccccc1)NC(=O)[C@@H](NC(=O)CNC(=O)[C@H](CCC(=O)O)NC(=O)CNC(=O)[C@@H](N)Cc1c[nH]cn1)[C@@H](C)O)[C@@H](C)O)C(=O)N[C@@H](CCC(N)=O)C(=O)N[C@@H](CC(C)C)C(=O)N[C@@H](CC(=O)O)C(=O)N[C@@H](CCC(=O)O)C(=O)N[C@@H](CCC(=O)O)C(=O)N[C@@H](C)C(=O)N[C@H](C(=O)N[C@@H](CCCNC(=N)N)C(=O)N[C@@H](CC(C)C)C(=O)N[C@@H](Cc1ccccc1)C(=O)N[C@H](C(=O)N[C@@H](CCC(=O)O)C(=O)N[C@@H](Cc1c[nH]c2ccccc12)C(=O)N[C@@H](CC(C)C)C(=O)N[C@@H](CCC(=O)O)C(=O)N[C@@H](C)C(=O)N[C@H](C(=O)NCC(=O)N1CCC[C@H]1C(=O)N[C@H](C(=O)N[C@@H](CO)C(=O)NCC(=O)N[C@@H](C)C(=O)N1CCC[C@H]1C(=O)N1CCC[C@H]1C(=O)N1CCC[C@H]1C(=O)N[C@@H](CO)C(N)=O)C(C)C)[C@@H](C)O)[C@@H](C)CC)C(C)C [Ab P006] (H-HGEGTFTSDLSIQLDEEAVRLFIEWLEATGPVSGAPPPS-NH2) | 0.0147 nM
2 | – | – | CC[C@H](C)[C@H](NC(=O)[C@H](CO)NC(=O)[C@H](CC(C)C)NC(=O)[C@H](CC(=O)O)NC(=O)[C@H](CO)NC(=O)[C@@H](NC(=O)[C@H](Cc1ccccc1)NC(=O)[C@@H](NC(=O)CNC(=O)[C@H](CCC(=O)O)NC(=O)CNC(=O)[C@H](Cc1c[nH]cn1)NC(=O)CN)[C@@H](C)O)[C@@H](C)O)C(=O)N[C@@H](CCC(N)=O)C(=O)N[C@@H](CC(C)C)C(=O)N[C@@H](CCC(=O)O)C(=O)N[C@@H](CCC(=O)O)C(=O)N[C@@H](CCC(=O)O)C(=O)N[C@@H](C)C(=O)N[C@H](C(=O)N[C@@H](CCCNC(=N)N)C(=O)N[C@@H](CC(C)C)C(=O)N[C@@H](Cc1ccccc1)C(=O)N[C@H](C(=O)N[C@@H](CCC(=O)O)C(=O)N[C@@H](Cc1c[nH]c2ccccc12)C(=O)N[C@@H](CC(C)C)C(=O)N[C@@H](CC(C)C)C(=O)N[C@@H](C)C(=O)NCC(=O)NCC(=O)N1CCC[C@H]1C(=O)N[C@@H](CO)C(=O)N[C@@H](CO)C(=O)NCC(=O)N[C@@H](C)C(=O)N1CCC[C@H]1C(=O)N1CCC[C@H]1C(=O)N1CCC[C@H]1C(=O)N[C@@H](CO)C(N)=O)[C@@H](C)CC)C(C)C [Ab P019] | 0.0276 nM
3 | – | – | CC[C@H](C)[C@H](NC(=O)[C@H](CO)NC(=O)[C@H](CC(C)C)NC(=O)[C@H](CC(=O)O)NC(=O)[C@H](CO)NC(=O)[C@@H](NC(=O)[C@H](Cc1ccccc1)NC(=O)[C@@H](NC(=O)CNC(=O)[C@H](CCC(=O)O)NC(=O)CNC(=O)[C@@H](N)Cc1c[nH]cn1)[C@@H](C)O)[C@@H](C)O)C(=O)N[C@@H](CCC(N)=O)C(=O)N[C@@H](CC(C)C)C(=O)N[C@@H](CC(=O)O)C(=O)N[C@@H](CCC(=O)O)C(=O)N[C@@H](CCC(=O)O)C(=O)N[C@@H](C)C(=O)N[C@H](C(=O)N[C@@H](CCCNC(=N)N)C(=O)N[C@@H](CC(C)C)C(=O)N[C@@H](Cc1ccccc1)C(=O)N[C@H](C(=O)N[C@@H](CCC(=O)O)C(=O)N[C@@H](Cc1c[nH]c2ccccc12)C(=O)N[C@@H](CC(C)C)C(=O)N[C@@H](CC(C)C)C(=O)N[C@@H](C)C(=O)N[C@H](C(=O)NCC(=O)N1CCC[C@H]1C(=O)N[C@H](C(=O)N[C@@H](CO)C(=O)NCC(=O)N[C@@H](C)C(=O)N1CCC[C@H]1C(=O)N1CCC[C@H]1C(=O)N1CCC[C@H]1C(=O)N[C@@H](CO)C(N)=O)C(C)C)[C@@H](C)O)[C@@H](C)CC)C(C)C [Ab P005] | 0.0031 nM
4 | – | – | CC[C@H](C)[C@H](NC(=O)[C@H](Cc1ccccc1)NC(=O)[C@H](CC(C)C)NC(=O)[C@H](CCC(N)=O)NC(=O)[C@@H](NC(=O)[C@H](C)NC(=O)[C@H](CCC(=O)O)NC(=O)[C@H](CCC(=O)O)NC(=O)[C@H](CCC(=O)O)NC(=O)[C@H](CC(C)C)NC(=O)[C@H](CCC(N)=O)NC(=O)[C@H](CCCCN)NC(=O)[C@H](CO)NC(=O)[C@H](CC(C)C)NC(=O)[C@H](CC(=O)O)NC(=O)[C@H](CO)NC(=O)[C@@H](NC(=O)[C@H](Cc1ccccc1)NC(=O)[C@@H](NC(=O)CNC(=O)[C@H](CCC(=O)O)NC(=O)CNC(=O)[C@@H](N)Cc1c[nH]cn1)[C@@H](C)O)[C@@H](C)O)C(C)C)C(=O)N[C@@H](CCC(=O)O)C(=O)N[C@@H](Cc1c[nH]c2ccccc12)C(=O)N[C@@H](CC(C)C)C(=O)N[C@@H](CC(C)C)C(=O)N[C@@H](C)C(=O)N[C@H](C(=O)NCC(=O)N1CCC[C@H]1C(=O)N[C@@H](CO)C(=O)N[C@@H](CO)C(=O)NCC(=O)N[C@@H](C)C(=O)N1CCC[C@H]1C(=O)N1CCC[C@H]1C(=O)N1CCC[C@H]1C(=O)N[C@@H](CO)C(N)=O)[C@@H](C)O [Ab P010] (H-HGEGTFTSDLSKQLEEEAVQLFIEWLLATGPSSGAPPPS-NH2) | 0.0035 nM
5 | – | – | CC[C@H](C)[C@H](NC(=O)[C@H](CO)NC(=O)[C@H](CC(C)C)NC(=O)[C@H](CC(=O)O)NC(=O)[C@H](CO)NC(=O)[C@@H](NC(=O)[C@H](Cc1ccccc1)NC(=O)[C@@H](NC(=O)CNC(=O)[C@H](CCC(=O)O)NC(=O)CNC(=O)[C@H](Cc1c[nH]cn1)NC(=O)CN)[C@@H](C)O)[C@@H](C)O)C(=O)N[C@@H](CCC(N)=O)C(=O)N[C@@H](CC(C)C)C(=O)N[C@@H](CCC(=O)O)C(=O)N[C@@H](CCC(=O)O)C(=O)N[C@@H](CCC(=O)O)C(=O)N[C@@H](C)C(=O)N[C@H](C(=O)N[C@@H](CCCNC(=N)N)C(=O)N[C@@H](CC(C)C)C(=O)N[C@@H](Cc1ccccc1)C(=O)N[C@H](C(=O)N[C@@H](CCC(=O)O)C(=O)N[C@@H](Cc1c[nH]c2ccccc12)C(=O)N[C@@H](CC(C)C)C(=O)N[C@@H](CC(C)C)C(=O)N[C@@H](C)C(=O)N[C@H](C(=O)NCC(=O)N1CCC[C@H]1C(=O)N[C@@H](CO)C(=O)N[C@@H](CO)C(=O)NCC(=O)N[C@@H](C)C(=O)N1CCC[C@H]1C(=O)N1CCC[C@H]1C(=O)N1CCC[C@H]1C(=O)N[C@@H](CO)C(N)=O)[C@@H](C)O)[C@@H](C)CC)C(C)C [Ab P020] | 0.206 nM
6 | > 10 nM | 2.37 nM | CC[C@H](C)[C@H](NC(=O)[C@H](Cc1ccccc1)NC(=O)[C@H](CCC(=O)O)NC(=O)[C@H](Cc1c[nH]cn1)NC(=O)[C@H](CCC(N)=O)NC(=O)[C@H](C)NC(=O)[C@H](CCCNC(=N)N)NC(=O)[C@H](CCCCN)NC(=O)[C@H](CCC(=O)O)NC(=O)[C@H](CC(C)C)NC(=O)[C@H](CC(C)C)NC(=O)[C@H](CCC(=O)O)NC(=O)[C@H](CO)NC(=O)[C@H](CC(C)C)NC(=O)[C@H](CC(=O)O)NC(=O)[C@H](CO)NC(=O)[C@@H](NC(=O)[C@H](Cc1ccccc1)NC(=O)[C@@H](NC(=O)CNC(=O)[C@H](CCC(=O)O)NC(=O)CNC(=O)[C@@H](N)Cc1c[nH]cn1)[C@@H](C)O)[C@@H](C)O)C(=O)N[C@@H](CCC(=O)O)C(=O)N[C@@H](Cc1c[nH]c2ccccc12)C(=O)N[C@@H](CC(C)C)C(=O)N[C@@H](CCCCN)C(=O)N[C@@H](C)C(=O)NCC(=O)NCC(=O)N1CCC[C@H]1C(=O)N[C@@H](CO)C(=O)N[C@@H](CO)C(=O)NCC(=O)N[C@@H](CCCCN)C(=O)N1CCC[C@H]1C(=O)N1CCC[C@H]1C(=O)N1CCC[C@H]1C(=O)N[C@@H](CCCCN)C(N)=O [Ab P032] (H-HGEGTFTSDLSELLEKRAQHEFIEWLKAGGPSSGKPPPK-NH2; N-terminus assumed) | –
